# From patent US10919885B2, “Compounds and uses thereof” (Yumanity Therapeutics, Inc., priority 2018, dated 2021)
# Key:
# [1] = biological target: human SCD1 (Homo sapiens (Human), UniProt O00767); assay: Yeast growth assay, strain expressing human SCD1 as the sole desaturase (reduced growth as surrogate for SCD inhibition); format: cell-based; settings: yeast with OLE1 deleted expressing human SCD1 from a plasmid; growth read as OD600 after 40 h at 30° C.; top drug concentration 33.3 μM
# Procedure, shortened: (§1)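 Yeast lacking OLE1 depend on plasmid-borne human SCD1 or SCD5 and are tested in SD-Ura medium without oleic/palmitoleic acid or Tween.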
# [2] = biological target: human SCD5 (Homo sapiens (Human), UniProt Q86SK9); assay: Yeast growth assay, strain expressing human SCD5 as the sole desaturase (reduced growth as surrogate for SCD inhibition); format: cell-based; settings: yeast with OLE1 deleted expressing human SCD5 from a plasmid; growth read as OD600 after 40 h at 30° C.; top drug concentration 33.3 μM
# human SCD5, sequence (Q86SK9 whole entry): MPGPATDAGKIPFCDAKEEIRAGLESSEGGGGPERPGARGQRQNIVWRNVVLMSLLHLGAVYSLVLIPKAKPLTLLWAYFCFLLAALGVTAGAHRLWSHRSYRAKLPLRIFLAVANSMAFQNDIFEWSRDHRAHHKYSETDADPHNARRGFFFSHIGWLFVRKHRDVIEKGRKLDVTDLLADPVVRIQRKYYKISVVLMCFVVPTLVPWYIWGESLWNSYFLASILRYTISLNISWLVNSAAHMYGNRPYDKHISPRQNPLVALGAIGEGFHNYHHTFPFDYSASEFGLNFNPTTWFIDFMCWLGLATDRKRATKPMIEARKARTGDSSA
# Procedure, shortened: as §1
# human SCD1, sequence (O00767 whole entry): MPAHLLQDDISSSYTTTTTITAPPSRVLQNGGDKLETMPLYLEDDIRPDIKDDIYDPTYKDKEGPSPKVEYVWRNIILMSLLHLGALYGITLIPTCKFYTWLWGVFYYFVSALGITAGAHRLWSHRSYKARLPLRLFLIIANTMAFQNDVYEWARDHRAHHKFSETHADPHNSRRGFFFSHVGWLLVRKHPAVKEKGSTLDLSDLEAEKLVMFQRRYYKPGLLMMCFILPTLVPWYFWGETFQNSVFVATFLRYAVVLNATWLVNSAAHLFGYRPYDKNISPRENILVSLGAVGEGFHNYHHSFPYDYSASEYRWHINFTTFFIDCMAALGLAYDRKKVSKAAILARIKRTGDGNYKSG
SMILES,IC50 [1] [µM],IC50 [2] [µM]
CC(C)(O)c1cc(C(=O)Nc2cnn(Cc3ccccc3)c2)on1 [Compound 152],> 45,> 45
O=C(Nc1cnn(CC2CC2)c1)c1cc(-c2ccccc2)on1 [Compound 41],> 45,> 45
CC(C)(C)OC(=O)n1cc(NC(=O)c2cc(-c3ccccc3)on2)cn1 [Compound 35],3.24,> 45
O=C(Nc1cnn(Cc2ccccc2)c1)c1cc(-c2cnsc2)on1 [Compound 146],11,> 45
CC1(c2cc(C(=O)Nc3cnn(Cc4cccc(F)c4)c3)no2)COC1 [Compound 116],> 45,> 45
N#Cc1ccccc1-c1cc(C(=O)Nc2cnn(Cc3ccccc3)c2)no1 [Compound 135],> 45,> 45
O=C(Nc1cn(Cc2ccccc2)nn1)c1cc(-c2ccccc2)on1 [Compound 44],> 45,> 45
O=C(Nc1cnn(Cc2ccccc2)c1)c1cc(-c2ccccn2)no1 [Compound 129],> 45,> 45
O=C(c1cc(-c2ccccn2)on1)N1CCC(c2ccccc2)CC1 [Compound 318],> 45,14.1
"O=C(Nc1cnn(Cc2cccc(F)c2)c1)c1cc(-c2ncccc2F)on1 [Compound 108, N-(1-(3-fluorobenzyl)-1H-pyrazol-4-yl)-5-(3-fluoropyridin-2-yl)isoxazole-3-carboxamide]",1.2,1.8
O=C(Nc1cc(-c2ccco2)on1)c1cnn(Cc2ccc(Cl)c(Cl)c2)c1 [Compound 59],> 45,> 45
O=C(Nc1cnn(Cc2ccc(F)c(F)c2)c1)c1cc(-c2ccccn2)on1 [Compound 61],25.5,> 45
N#Cc1ccc(Cn2cc(NC(=O)c3cc(-c4ccccc4)on3)cn2)nc1 [Compound 63],> 45,> 45
O=C(Nc1cnn(Cc2cccc(F)c2)c1)c1cc(-c2cnccn2)on1 [Compound 45],23.1,> 45
O=C(Nc1cnn(Cc2ccccc2)c1)c1cc(-c2cccc3cnn(C4COC4)c23)on1 [Compound 96],> 45,> 45
O=C(Nc1cnn(Cc2cccc(F)c2)c1)c1cc(C2(O)CCC2)on1 [Compound 100],3.1,20
O=C(c1cc(-c2ccccc2)on1)N1CC2(CNC2)C1 [Compound 345],> 45,> 45
O=C(Nc1cnn(Cc2ccccc2)c1)c1cc(-c2ccns2)on1 [Compound 126],6.97,> 45
N#Cc1cc(F)cc(Cn2cc(NC(=O)c3cc(-c4ccccc4)on3)cn2)c1 [Compound 98],> 45,> 45
CS(=O)(=O)CC(c1ccccc1)n1cc(NC(=O)c2cc(-c3ccccc3)on2)cn1 (stereo not drawn) [Compound 80],> 45,> 45
O=C(Nc1cnn(CCc2ccccc2)c1)c1cc(-c2ccco2)on1 [Compound 24],> 45,> 45
CNC(=O)c1cc(C(=O)Nc2cnn(Cc3cccc(F)c3)c2)no1 [Compound 87],15,> 45

# Second part, the compound after the results:
IC50 [1] [µM],IC50 [2] [µM],SMILES
> 45,> 45,N#Cc1cccc(-c2cc(C(=O)N3CCC(c4ccccc4)CC3)no2)c1 [Compound 317]
32.2,> 45,COc1ccc(C2CCCN2C(=O)c2cc(-c3ccc(OC)c(OC)c3)on2)cc1 (stereo not drawn) [Compound 374]
> 45,> 45,O=C(Nc1cnn(Cc2cccnc2C(F)(F)F)c1)c1cc(-c2ccccc2F)on1 [Compound 177]
> 45,5.16,"Cn1cc2ccc(-c3cc(C(=O)N4CC(c5ccccc5)C4)no3)cc2n1 [Compound 235, (5-(2-methyl-2H-indazol-6-yl)isoxazol-3-yl)(3-phenylazetidin-1-yl)methanone]"
> 45,> 45,O=C(Nc1cnn(Cc2cccc(F)c2)c1)c1cc(CO)on1 [Compound 191]
> 45,> 45,O=C(c1cc(-c2ccccc2)on1)N1CCN(c2ccccc2F)CC1 [Compound 284]
> 45,> 45,O=C(c1cc(-c2ccc3c(c2)OCO3)on1)N1CCCC1c1ccccc1F (stereo not drawn) [Compound 366]
> 45,0.95,O=C(c1cc(-c2ccc3c(c2)OCO3)on1)N1CC2(C1)CC(O)(c1ccccc1)C2 [Compound 224]
> 45,> 45,COc1ccc(-c2cc(C(=O)N3CCCC3c3ccc(OC)cc3)no2)cc1 (stereo not drawn) [Compound 376]
> 45,> 45,O=C(c1ccncc1)N1CCN(C(=O)c2cc(-c3ccc4c(c3)OCO4)on2)CC1 [Compound 276]
> 45,8.9,O=C(c1cc(-c2ccccc2)on1)N1CCCC1Cc1ccccc1 (stereo not drawn) [Compound 436]
> 45,13,"O=C(c1noc2c1CCCC2)N1CC(Cc2ccccc2)C1 [Compound 253, 3-(3-benzylazetidine-1-carbonyl)-4,5,6,7-tetrahydro-1,2-benzoxazole]"
> 45,> 45,O=C(c1cc(-c2ccc3c(c2)OCO3)on1)N1COCC1c1ccccc1 (stereo not drawn) [Compound 406]
> 45,> 45,COc1ccc(C2CCCN2C(=O)c2cc(-c3ccccc3)on2)cc1 (stereo not drawn) [Compound 377]
> 45,> 45,COc1cccnc1C1CCCN1C(=O)c1cc(-c2ccc3c(c2)OCO3)on1 (stereo not drawn) [Compound 437]
> 45,> 45,O=C(c1cc(-c2ccc3c(c2)OCO3)on1)N1CCCc2c(F)cccc21 [Compound 263]
> 45,> 45,O=C(Nc1cnn(Cc2ncccc2C(F)(F)F)c1)c1cc(-c2ccccc2F)on1 [Compound 196]
> 45,3.8,C=C(C)c1cc(C(=O)N2CCC3(CCc4c(F)cccc4O3)CC2)no1 [Compound 324]
7.61,> 45,NC(=O)c1cc(C(=O)N2CCC(c3ccccc3)C2)no1 (stereo not drawn) [Compound 348]
> 45,> 45,N#Cc1ccccc1C1CCCN1C(=O)c1cc(-c2ccc3c(c2)OCO3)on1 (stereo not drawn) [Compound 398]
> 45,> 45,O=C(Nc1cnn(Cc2ccccc2)c1)c1cc(-c2ccc(F)cc2F)on1 [Compound 157]
> 45,> 45,N#Cc1cccnc1C1CCCN1C(=O)c1cc(-c2ccc3c(c2)OCO3)on1 (stereo not drawn) [Compound 448]
> 45,> 45,O=C(NC1CN(C(=O)c2cc(-c3ccccc3)on2)C1)c1ccccc1 [Compound 240]
